For five compounds, EC50 results are on record in patent publication US9409966B2, “Glucagon-like peptide-1 derivatives and their pharmaceutical use” (priority 2007, dated 2016).

In one assay the target is T1, human GLP-1 receptor (Homo sapiens, UniProt P43220).
T1 construct: expressed in transfected cells; host or cells: BHK467-12A (tk-ts13) baby hamster kidney cells; purified plasma membranes
The assay can be described thus: Stimulation of cAMP formation in a cell line expressing the cloned human GLP-1 receptor. It counts as biochemical. (In general: Changes in cAMP serve as a functional read-out for many G protein-coupled receptors.)

The target in assay [1] is human serum albumin (HSA) (Homo sapiens, UniProt P02768). The assay can be described thus: Albumin binding affinity, competition scintillation proximity assay (SPA).
Experimental: Streptavidin-SPA beads (GE Healthcare RPNQ0009) were incubated with biotinylated HSA for 5 hours. The beads were washed with buffer to remove unbound HSA. […] After 20 hours of gentle rocking at room temperature the plates were centrifuged and counted on a TopCounter.
[2] abbreviates: cAMP production, purified plasma membranes from BHK467-12A (tk-ts13), AlphaScreen cAMP Assay Kit, read-out: Potency [EC50/nM].

Read-outs that look alike come from different tables or passages of the source. *1 amine or outer side, *2 acyl side, *3 side chain or, on linkers, in order; H or OH if unused. Where a SMILES comes first, the peptide text is derived from it. Side-chain parts run from the residue outwards. [ ]: non-standard residue; d: D form. The star is where a group is joined. C18 diacid = O=C(O)CCCCCCCCCCCCCCCCC(=O)*; γGlu = O=C(O)[C@H](CCC(=O)[*:2])N[*:1]; AEEA = NCCOCCOCC(=O)O; Aib = CC(C)(N)C(=O)O

human serum albumin (HSA), sequence (P02768 25-609): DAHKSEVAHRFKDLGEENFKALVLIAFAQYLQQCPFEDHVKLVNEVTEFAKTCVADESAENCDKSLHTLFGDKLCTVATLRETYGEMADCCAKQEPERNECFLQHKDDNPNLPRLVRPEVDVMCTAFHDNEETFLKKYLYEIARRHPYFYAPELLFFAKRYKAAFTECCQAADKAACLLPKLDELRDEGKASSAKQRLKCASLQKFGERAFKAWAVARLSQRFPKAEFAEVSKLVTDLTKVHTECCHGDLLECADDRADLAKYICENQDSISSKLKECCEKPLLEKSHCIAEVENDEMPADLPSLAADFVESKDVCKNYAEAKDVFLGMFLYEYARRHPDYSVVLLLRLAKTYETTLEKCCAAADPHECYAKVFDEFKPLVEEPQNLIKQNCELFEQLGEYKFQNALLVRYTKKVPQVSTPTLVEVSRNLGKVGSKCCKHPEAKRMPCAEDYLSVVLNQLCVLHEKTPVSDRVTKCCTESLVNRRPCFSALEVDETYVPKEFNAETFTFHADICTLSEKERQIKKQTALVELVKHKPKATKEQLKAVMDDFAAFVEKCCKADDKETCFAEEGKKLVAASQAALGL
T1 sequence (P43220 24-463): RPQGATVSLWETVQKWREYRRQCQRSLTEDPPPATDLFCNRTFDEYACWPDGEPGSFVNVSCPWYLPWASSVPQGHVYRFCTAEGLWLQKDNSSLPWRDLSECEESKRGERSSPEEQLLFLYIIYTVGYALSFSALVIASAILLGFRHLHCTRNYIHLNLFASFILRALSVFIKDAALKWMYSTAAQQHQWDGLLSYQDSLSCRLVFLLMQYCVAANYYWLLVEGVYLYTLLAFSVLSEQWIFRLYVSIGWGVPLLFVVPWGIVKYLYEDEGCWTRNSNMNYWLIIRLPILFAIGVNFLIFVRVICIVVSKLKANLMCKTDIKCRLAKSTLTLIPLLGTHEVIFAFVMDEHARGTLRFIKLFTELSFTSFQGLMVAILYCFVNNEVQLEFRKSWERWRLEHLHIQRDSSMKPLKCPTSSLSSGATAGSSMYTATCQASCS

For the compound `CC[C@H](C)[C@H](NC(=O)[C@H](Cc1ccccc1)NC(=O)[C@H](CCC(=O)O)NC(=O)[C@H](CCCNC(=N)N)NC(=O)[C@H](C)NC(=O)[C@H](C)NC(=O)[C@H](CCC(N)=O)NC(=O)[C@H](CCC(=O)O)NC(=O)[C@H](CCC(=O)O)NC(=O)[C@H](CC(C)C)NC(=O)[C@H](Cc1ccc(O)cc1)NC(=O)[C@H](CO)NC(=O)[C@H](CO)NC(=O)[C@@H](NC(=O)[C@H](CC(=O)O)NC(=O)[C@H](CO)NC(=O)[C@@H](NC(=O)[C@H](Cc1ccccc1)NC(=O)[C@@H](NC(=O)CNC(=O)[C@H](CCC(=O)O)NC(=O)C(C)(C)NC(=O)[C@@H](N)Cc1c[nH]cn1)[C@@H](C)O)[C@@H](C)O)C(C)C)C(=O)N[C@@H](C)C(=O)N[C@@H](Cc1c[nH]c2ccccc12)C(=O)N[C@@H](CC(C)C)C(=O)N[C@H](C(=O)N[C@@H](CCCNC(=N)N)C(=O)NCC(=O)N[C@@H](CCCNC(=N)N)C(=O)N[C@@H](CCCCNC(=O)COCCOCCNC(=O)COCCOCCNC(=O)CC[C@H](NC(=O)CCCCCCCCCCCCCCCCC(=O)O)C(=O)O)C(=O)O)C(C)C` [Example 27, N-epsilon37-[2-(2-{2-[2-(2-{2-[(S)-4-Carboxy-4-(17-carboxy-heptadecanoylamino)-butyrylamino]-ethoxy}-ethoxy)-acetylamino]-ethoxy}-ethoxy)-acetyl] [Aib8,Glu22,Arg26,Arg34,Lys37]GLP-1-(7-37)], the EC50 on human GLP-1 receptor (setting [2]) was 0.05 nM; in assay [1], 100 to 150 nM.

For the compound `CC[C@H](C)[C@H](NC(=O)[C@H](Cc1ccccc1)NC(=O)[C@H](CCC(=O)O)NC(=O)[C@H](CCCNC(=N)N)NC(=O)[C@H](C)NC(=O)[C@H](C)NC(=O)[C@H](CCC(N)=O)NC(=O)[C@H](CCC(=O)O)NC(=O)[C@H](CCC(=O)O)NC(=O)[C@H](CC(C)C)NC(=O)[C@H](Cc1ccc(O)cc1)NC(=O)[C@H](CO)NC(=O)[C@H](CO)NC(=O)[C@@H](NC(=O)[C@H](CC(=O)O)NC(=O)[C@H](CO)NC(=O)[C@@H](NC(=O)[C@H](Cc1ccccc1)NC(=O)[C@@H](NC(=O)CNC(=O)[C@H](CCC(=O)O)NC(=O)[C@H](C)NC(=O)CCc1c[nH]cn1)[C@@H](C)O)[C@@H](C)O)C(C)C)C(=O)N[C@@H](C)C(=O)N[C@@H](Cc1c[nH]c2ccccc12)C(=O)N[C@@H](CC(C)C)C(=O)N[C@H](C(=O)N[C@@H](CCCNC(=N)N)C(=O)NCC(=O)N[C@@H](CCCNC(=N)N)C(=O)N[C@@H](CCCCNC(=O)COCCOCCNC(=O)COCCOCCNC(=O)CC[C@H](NC(=O)CCCCCCCCCCCCCCCCC(=O)O)C(=O)O)C(=O)O)C(C)C` [Example 29, N-epsilon37-[2-(2-{2-[2-(2-{2-[(S)-4-Carboxy-4-(17-carboxy-heptadecanoylamino)-butyrylamino]-ethoxy}-ethoxy)-acetylamino]-ethoxy}-ethoxy)-acetyl] [desaminoHis7,Glu22,Arg26,Arg34,Lys37] GLP-1-(7-37)], the EC50 was 0.1 nM at human GLP-1 receptor (setting [2]) and 400 to 800 nM in assay [1].

Take `CC[C@H](C)[C@H](NC(=O)[C@H](Cc1ccccc1)NC(=O)[C@H](CCC(=O)O)NC(=O)[C@H](CCCNC(=N)N)NC(=O)[C@H](C)NC(=O)[C@H](C)NC(=O)[C@H](CCC(N)=O)NC(=O)[C@H](CCC(=O)O)NC(=O)[C@H](CCC(=O)O)NC(=O)[C@H](CC(C)C)NC(=O)[C@H](Cc1ccc(O)cc1)NC(=O)[C@H](CO)NC(=O)[C@H](CO)NC(=O)[C@@H](NC(=O)[C@H](CC(=O)O)NC(=O)[C@H](CO)NC(=O)[C@@H](NC(=O)[C@H](Cc1ccccc1)NC(=O)[C@@H](NC(=O)CNC(=O)[C@H](CCC(=O)O)NC(=O)C(C)(C)NC(=O)[C@@H](N)Cc1c[nH]cn1)[C@@H](C)O)[C@@H](C)O)C(C)C)C(=O)N[C@@H](C)C(=O)N[C@@H](Cc1c[nH]c2ccccc12)C(=O)N[C@@H](CC(C)C)C(=O)N[C@H](C(=O)N[C@@H](CCCNC(=N)N)C(=O)NCC(=O)N[C@@H](CCCNC(=N)N)C(=O)N[C@@H](CCCCNC(=O)COCCOCCNC(=O)COCCOCCNC(=O)CC[C@H](NC(=O)[C@H]1CC[C@H](CNC(=O)CCCCCCCCCCCCCCCCCCC(=O)O)CC1)C(=O)O)C(=O)O)C(C)C` [Example 32, N-epsilon37-[2-(2-{2-[2-(2-{2-[(S)-4-Carboxy-4-({trans-4-[(19-carboxynonadecanoylamino)methyl]cyclohexanecarbonyl}amino)butyrylamino]ethoxy}ethoxy)acetylamino]ethoxy}ethoxy)acetyl][Aib8,Glu22,Arg26,Arg34,Lys37]GLP-1-(7-37)]: the values for the EC50 (at human GLP-1 receptor; in assay [1]) were 0.46 nM and 1 to 100 nM, respectively.

As for `CC[C@H](C)[C@H](NC(=O)[C@H](Cc1ccccc1)NC(=O)[C@H](CCC(=O)O)NC(=O)[C@H](CCCNC(=N)N)NC(=O)[C@@H](NC(=O)[C@H](C)NC(=O)[C@H](CCC(N)=O)NC(=O)[C@H](CCC(=O)O)NC(=O)[C@H](CCC(=O)O)NC(=O)[C@H](CCCCN)NC(=O)[C@H](Cc1ccc(O)cc1)NC(=O)[C@H](CO)NC(=O)[C@H](CO)NC(=O)[C@@H](NC(=O)[C@H](CC(=O)O)NC(=O)[C@H](CO)NC(=O)[C@@H](NC(=O)[C@H](Cc1ccccc1)NC(=O)[C@@H](NC(=O)CNC(=O)[C@H](CCC(=O)O)NC(=O)C(C)(C)NC(=O)[C@@H](N)Cc1c[nH]cn1)[C@@H](C)O)[C@@H](C)O)C(C)C)C(C)C)C(=O)N[C@@H](C)C(=O)N[C@@H](CCCCNC(=O)COCCOCCNC(=O)COCCOCCNC(=O)CC[C@H](NC(=O)CCCCCCCCCCCCCCCCC(=O)O)C(=O)O)C(=O)N[C@@H](CC(C)C)C(=O)N[C@H](C(=O)N[C@@H](CCCNC(=N)N)C(=O)N[C@@H](CCCNC(=N)N)C(=O)N[C@@H](CCCNC(=N)N)C(=O)N[C@@H](CCCNC(=N)N)C(=O)O)C(C)C` [Example 34, N-epsilon31-[2-(2-{2-[2-(2-{2-[(S)-4-Carboxy-4-(17-carboxyheptadecanoylamino)butyrylamino]ethoxy}ethoxy)acetylamino]ethoxy}ethoxy)acetyl][Aib8,Glu22,Val25,Arg26,Lys31,Arg34,Arg35,Arg37]GLP-1-(7-37)] (H-H[Aib]EGTFTSDVSSYKEEQAVREFIAK([AEEA-AEEA-γGlu-C18 diacid])LVRRRR-OH), the EC50 is 1.27 nM on human GLP-1 receptor (setting [2]) and above 2000 nM in assay [1].

For the compound `CC[C@H](C)[C@H](NC(=O)[C@H](Cc1ccccc1)NC(=O)[C@H](CCC(=O)O)NC(=O)[C@H](CCCNC(=N)N)NC(=O)[C@@H](NC(=O)[C@H](C)NC(=O)[C@H](CCC(N)=O)NC(=O)[C@H](CCC(=O)O)NC(=O)[C@H](CCC(=O)O)NC(=O)[C@H](CCCCN)NC(=O)[C@H](Cc1ccc(O)cc1)NC(=O)[C@H](CO)NC(=O)[C@H](CO)NC(=O)[C@@H](NC(=O)[C@H](CC(=O)O)NC(=O)[C@H](CO)NC(=O)[C@@H](NC(=O)[C@H](Cc1ccccc1)NC(=O)[C@@H](NC(=O)CNC(=O)[C@H](CCC(=O)O)NC(=O)C(C)(C)NC(=O)[C@@H](N)Cc1c[nH]cn1)[C@@H](C)O)[C@@H](C)O)C(C)C)C(C)C)C(=O)N[C@@H](C)C(=O)N[C@@H](CCCCNC(=O)COCCOCCNC(=O)COCCOCCNC(=O)CC[C@H](NC(=O)CCCCCCCCCCCCCCCCC(=O)O)C(=O)O)C(=O)N[C@@H](CC(C)C)C(=O)N[C@H](C(=O)N[C@@H](CCCNC(=N)N)C(=O)N[C@@H](CCCNC(=N)N)C(=O)N[C@@H](CCCNC(=N)N)C(=O)N[C@@H](CCCNC(=N)N)C(=O)N[C@@H](CCCNC(=N)N)C(=O)N[C@@H](CCCNC(=N)N)C(=O)N[C@@H](CCCNC(=N)N)C(=O)N[C@@H](CCCNC(=N)N)C(=O)O)C(C)C` [Example 35] (H-H[Aib]EGTFTSDVSSYKEEQAVREFIAK([AEEA-AEEA-γGlu-C18 diacid])LVRRRRRRRR-OH), the results for the EC50 (at human GLP-1 receptor (setting [2]); in assay [1]) were 0.74 nM and 800 to 1500 nM, respectively.
